Where a name gives a salt, the structure may show the parent alone.
Legend:
HIV-1 = conditions: in combination with recombinant soluble CD4 castanospermine and recombinant interferon-α; cited from earlier work
HIV replication = conditions: in combination with PMPA, d4T, ddC, nelfinavir, ritonavir, saquinavir; cited from earlier work
[1] = in tablets, six months at 40° C./75% RH, packaged and stored with desiccant
[2] = each dose regimen greater or equal to 200 mg, two weeks, monotherapy

With `Nc1nc(=O)n([C@@H]2CS[C@H](CO)O2)cc1F` (single isomer, unassigned) [Emtricitabine] the viral suppression (HIV; [2]) was ≥ 98%, the “viral suppression (log 10)” value (HIV; [2]) was ≥ 1.75 log 10 and the “reduction of viral load, average” value (HIV; once-a-day dose of 200 mg) was 99%. The “reduction of viral load, average (log 10)” value (HIV; once-a-day dose of 200 mg) was 1.92 log 10.

For `Cc1cn([C@H]2C[C@H](N=[N+]=[N-])[C@@H](CO)O2)c(=O)[nH]c1=O` [AZT, 3′-azido, 3′-deoxythymidine], the “synergy of antiviral activity in vitro” value (HIV-1) is given as “synergistic antiviral activity”.

In the case of `CC(C)(C)C(=O)OCOP(=O)(COCCn1cnc2c(N)ncnc21)OCOC(=O)C(C)(C)C` [Adefovir dipivoxil], the “synergy of inhibition of HIV replication” value (HIV replication) is listed as “minor to moderate synergistic inhibition”.

For `CC(C)OC(=O)OCOP(=O)(CO[C@H](C)Cn1cnc2c(N)ncnc21)OCOC(=O)OC(C)C` [Tenofovir disoproxil fumarate, 9-[(R)-2-[[bis[[(isopropoxycarbonyl)oxy]methoxy]phosphinyl]methoxy]propyl]adenine fumarate (1:1)], the “loss in % label strength (significant defined as ≧5% degradation)” value [1] was “No significant loss”.
